Measurements reported in US7927829B2, “Method for in vitro phosphorylation of trap of Staphylococcus aureus and a method for screening the inhibitor of the trap phosphorylation” (priority 2007, dated 2011).

Molecular target: TRAP protein (Staphylococcus aureus, UniProt Q6GFM2)
Format: biochemical
Parameters: 6xHis (C); made in house; host or cells: Escherichia coli
Conditions: for in vitro phosphorylation of TRAP protein by using metal ions: 20 μM or 200 μM metal ions, 37° C. 30 minutes, FIG. 2; for metal ion concentration above which TRAP protein is maximally phosphorylated: various ion concentrations, other conditions as Example 3, FIG. 3; for TRAP phosphorylation induced by oxidative and reductive agents: same procedure as Example 3, FIG. 5
Protocol: The TRAP protein obtained in Example 2 was prepared with each tube according to following compositions of Table 2.
The protein sample prepared above was reacted at 37° C. for 30 minutes, then mixed with 2× loading dye 10 l (BioRad), and analyzed by performing SDS-PAGE at 150 V for an hour. Afterward, the resulting gel was dried and exposed onto an X-ray film to measure a degree of phosphorylation. The result is illustrated in FIG. 2. In the upper part of FIG. 2, 20 μM metal ions, Mg, Zn, Cu, Fe, Mn, Ni, Co are used in Lane 1 through Lane 7, respectively. In the lower part of FIG. 2, 200 μM metal ions, Mg, Cu, Zn, Ni, Co, Ca are used in Lane 1 through Lane 7, respectively.
Generally, a protein kinase binds with ATP, hydrolyzes ATP into ADP and attaches a resulting phosphate onto a specific amino acid of the protein to phosphorylate. In this process, Mg^2+ ions play a role of a subsidiary enzyme to stabilize the kinase binding with phosphates of ATP. […] The present inventors have attempted to elucidate why the TRAP protein utilizes the transition metal ions. […] Various oxidative and reductive agents were used to induce a phosphorylation in this Example.
In order to measure the TRAP phosphorylation, a quantitative analysis was performed by using FeSO4, ZnCl2 and CuCl2, in this Example. FeSO4, ZnCl2 and CuCl2, were added to each reaction at various ion concentrations and other conditions of the phosphorylation are the same as that of Example 3. The result is illustrated in FIG. 3.

TRAP protein, sequence (Q6GFM2 whole entry): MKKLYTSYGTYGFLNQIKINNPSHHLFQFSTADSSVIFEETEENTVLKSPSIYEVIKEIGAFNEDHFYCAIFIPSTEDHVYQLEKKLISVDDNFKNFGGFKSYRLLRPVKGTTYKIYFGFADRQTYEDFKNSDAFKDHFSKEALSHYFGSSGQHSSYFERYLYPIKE

Row | Compound | in vitro phosphorylation of TRAP protein by using metal ions | metal ion concentration above which TRAP protein is maximally phosphorylated [µM] | TRAP phosphorylation induced by oxidative and reductive agents | TRAP phosphorylation inhibited by a reducing agent (summary statement)
1 | [Cl][Cu][Cl] [CuCl2] | in vitro phosphorylated | > 20 |  | 
2 | O=S(=O)([O-])[O-].[Fe+2] [FeSO4] | in vitro phosphorylated | > 2 |  | 
3 | OO [H2O2, reference compound] |  |  | induced | 
4 | [Cl-].[Cl-].[Mg+2] [Mg^2+, MgCl2] | not phosphorylated |  |  | 
5 | [Cl-].[Cl-].[Zn+2] [ZnCl2] | in vitro phosphorylated | > 100 |  | 
6 | O=C1O[C@H]([C@@H](O)CO)C(O)=C1O [ascorbic acid, reference compound] |  |  | not | inhibited
